Data as given in ChEMBL document CHEMBL1201862, “PubChem BioAssay data set” (2004).
Calls of active or inactive are those of the source.

Columns and labels:
[1] = test system: HeLa; assay: viability loss in HeLa cells – cell-based, 24 h, cherry-picked samples, cytotoxicity control, dose response (AID 504726); type: functional; conditions: Homo sapiens;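 further: potency for cytotoxicity as loss of luminescence signal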
[2] = target: Neuropeptides B/W receptor type 1 (Homo sapiens, UniProt P48145); assay: Fluorescence-based dose response cell-based high throughput screening assay to identify antagonists of the G-protein coupled receptor 7 (GPR7). [Related pubchem assays: 1952 (Screening assay (GPR7 antagonists).), 1880 (Summary AID.)]; type: functional
Chain of Neuropeptides B/W receptor type 1 (P48145 whole entry): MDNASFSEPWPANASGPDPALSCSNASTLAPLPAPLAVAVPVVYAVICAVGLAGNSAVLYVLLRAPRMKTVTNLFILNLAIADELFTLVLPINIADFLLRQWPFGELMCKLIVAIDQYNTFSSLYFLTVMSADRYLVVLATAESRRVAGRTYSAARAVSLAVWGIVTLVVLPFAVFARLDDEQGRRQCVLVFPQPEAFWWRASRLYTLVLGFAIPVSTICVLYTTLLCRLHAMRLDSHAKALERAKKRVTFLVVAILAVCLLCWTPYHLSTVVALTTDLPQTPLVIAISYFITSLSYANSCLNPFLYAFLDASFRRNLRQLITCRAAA

[3] = target: Melanin-concentrating hormone receptor 1 (Homo sapiens, UniProt Q99705); assay: Fluorescence-based counterscreen for antagonists of the G-protein coupled receptor 7 (GPR7): cell-based high throughput dose response assay to identify antagonists of the melanin-concentrating hormone receptor 1 (MCHR1).; type: functional
Chain of Melanin-concentrating hormone receptor 1 (Q99705 whole entry): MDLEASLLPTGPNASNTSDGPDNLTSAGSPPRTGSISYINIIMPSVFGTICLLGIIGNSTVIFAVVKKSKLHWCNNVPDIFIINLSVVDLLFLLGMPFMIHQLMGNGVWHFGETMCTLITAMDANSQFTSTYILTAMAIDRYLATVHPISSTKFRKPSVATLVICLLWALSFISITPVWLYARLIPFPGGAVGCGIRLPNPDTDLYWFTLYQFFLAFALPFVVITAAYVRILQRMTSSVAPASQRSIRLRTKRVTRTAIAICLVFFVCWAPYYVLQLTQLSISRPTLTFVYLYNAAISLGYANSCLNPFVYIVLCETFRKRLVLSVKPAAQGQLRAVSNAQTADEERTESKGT

[4] = target: T1, DNA repair and recombination protein RAD54-like (Homo sapiens, UniProt Q92698); assay: RAD54 Holliday junction migration blockers – biochemical, fluorescence, cherry-picked samples, dose series, confirmation (AID 651657); type: functional
T1 sequence (Q92698 whole entry): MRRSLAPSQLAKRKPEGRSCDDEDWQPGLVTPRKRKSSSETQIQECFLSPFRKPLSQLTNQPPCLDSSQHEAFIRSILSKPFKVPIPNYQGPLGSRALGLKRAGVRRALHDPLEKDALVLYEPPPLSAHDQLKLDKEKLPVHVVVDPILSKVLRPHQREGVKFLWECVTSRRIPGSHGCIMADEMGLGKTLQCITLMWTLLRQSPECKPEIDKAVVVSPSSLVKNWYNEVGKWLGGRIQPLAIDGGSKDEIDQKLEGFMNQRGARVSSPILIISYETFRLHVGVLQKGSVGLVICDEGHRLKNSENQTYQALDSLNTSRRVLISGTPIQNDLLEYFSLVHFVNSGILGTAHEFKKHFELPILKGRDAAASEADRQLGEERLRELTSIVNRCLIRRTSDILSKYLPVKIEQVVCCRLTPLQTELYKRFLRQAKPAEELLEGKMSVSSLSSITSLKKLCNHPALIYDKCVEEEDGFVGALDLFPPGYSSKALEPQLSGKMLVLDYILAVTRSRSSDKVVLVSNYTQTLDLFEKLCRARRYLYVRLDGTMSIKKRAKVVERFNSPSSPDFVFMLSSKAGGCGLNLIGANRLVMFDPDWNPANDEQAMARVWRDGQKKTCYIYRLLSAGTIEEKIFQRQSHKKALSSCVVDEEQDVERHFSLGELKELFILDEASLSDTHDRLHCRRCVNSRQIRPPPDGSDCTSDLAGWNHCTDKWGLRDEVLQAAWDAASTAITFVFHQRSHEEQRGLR

[5] = target: Aspartyl aminopeptidase (Plasmodium falciparum 3D7, UniProt Q8I2J3)
[6] = target: T2, Zinc finger protein mex-5 (Caenorhabditis elegans, UniProt Q9XUB2); assay: potency of MEX-5 RNA-binding blockers – biochemical, C. elegans, fluorescence polarization, dose response (AID 1960)
T2 sequence (Q9XUB2 whole entry): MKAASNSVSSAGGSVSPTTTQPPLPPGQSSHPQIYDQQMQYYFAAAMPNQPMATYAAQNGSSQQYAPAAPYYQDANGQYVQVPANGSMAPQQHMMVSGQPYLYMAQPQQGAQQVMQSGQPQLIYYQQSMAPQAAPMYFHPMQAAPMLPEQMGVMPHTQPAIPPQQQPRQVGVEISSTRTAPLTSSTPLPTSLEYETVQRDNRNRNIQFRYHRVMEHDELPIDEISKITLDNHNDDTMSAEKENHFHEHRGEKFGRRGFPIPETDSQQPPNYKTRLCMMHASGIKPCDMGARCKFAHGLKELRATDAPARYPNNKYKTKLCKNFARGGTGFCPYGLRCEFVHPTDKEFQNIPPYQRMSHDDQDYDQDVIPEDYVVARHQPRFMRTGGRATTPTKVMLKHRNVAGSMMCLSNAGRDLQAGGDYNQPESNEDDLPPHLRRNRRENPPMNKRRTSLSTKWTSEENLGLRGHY

[7] = target: Mu-type opioid receptor (Homo sapiens, UniProt P35372); type: functional, cell-based;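 further: U2OS cells with beta-arrestin recruitment to OPRM1 by beta-gal complementation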
Chain of Mu-type opioid receptor (P35372 whole entry): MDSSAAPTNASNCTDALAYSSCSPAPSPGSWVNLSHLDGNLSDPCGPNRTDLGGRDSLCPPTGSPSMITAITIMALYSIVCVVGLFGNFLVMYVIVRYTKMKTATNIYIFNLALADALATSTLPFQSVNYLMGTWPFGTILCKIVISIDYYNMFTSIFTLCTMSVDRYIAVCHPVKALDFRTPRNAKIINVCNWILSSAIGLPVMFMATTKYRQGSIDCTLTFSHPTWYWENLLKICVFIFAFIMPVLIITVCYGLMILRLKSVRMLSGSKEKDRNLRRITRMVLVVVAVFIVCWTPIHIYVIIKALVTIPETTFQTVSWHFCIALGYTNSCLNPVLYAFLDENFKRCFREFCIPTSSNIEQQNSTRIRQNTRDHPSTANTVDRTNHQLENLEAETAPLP

[8] = cells; type: functional, cell-based
[9] = cells; type: functional, cell-based; remark: listed apart in the source
[10] = target: Procathepsin L (Homo sapiens, UniProt P07711)
Chain of Procathepsin L (P07711 whole entry): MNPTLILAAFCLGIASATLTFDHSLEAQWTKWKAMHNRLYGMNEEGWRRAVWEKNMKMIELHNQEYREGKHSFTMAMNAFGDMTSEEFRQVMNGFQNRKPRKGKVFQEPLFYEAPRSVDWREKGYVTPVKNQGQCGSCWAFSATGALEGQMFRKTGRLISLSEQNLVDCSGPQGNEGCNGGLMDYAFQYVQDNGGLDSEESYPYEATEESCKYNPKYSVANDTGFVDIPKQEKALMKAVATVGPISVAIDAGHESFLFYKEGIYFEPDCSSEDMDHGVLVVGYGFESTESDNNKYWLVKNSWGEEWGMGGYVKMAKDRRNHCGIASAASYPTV

[11] = target: FAD-linked sulfhydryl oxidase ALR (Homo sapiens, UniProt P55789); assay: ALR-catalysed DTT oxidation blockers – biochemical, H2O2 detection, luminescence, cherry-pick, dose response (AID 493248)
Chain of FAD-linked sulfhydryl oxidase ALR (P55789 whole entry): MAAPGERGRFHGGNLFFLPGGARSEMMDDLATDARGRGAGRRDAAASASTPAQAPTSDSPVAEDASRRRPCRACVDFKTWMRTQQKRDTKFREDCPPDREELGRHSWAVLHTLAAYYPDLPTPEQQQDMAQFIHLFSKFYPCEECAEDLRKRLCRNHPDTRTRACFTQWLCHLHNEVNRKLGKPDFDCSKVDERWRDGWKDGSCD

[12] = target: Large T antigen (Simian virus 40, UniProt P03070); type: functional, Betapolyomavirus macacae;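 further: Confirmatory-stage PubChem screen for compounds that inhibit SV40 T antigen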
Chain of Large T antigen (P03070 whole entry, the tested form may be a part): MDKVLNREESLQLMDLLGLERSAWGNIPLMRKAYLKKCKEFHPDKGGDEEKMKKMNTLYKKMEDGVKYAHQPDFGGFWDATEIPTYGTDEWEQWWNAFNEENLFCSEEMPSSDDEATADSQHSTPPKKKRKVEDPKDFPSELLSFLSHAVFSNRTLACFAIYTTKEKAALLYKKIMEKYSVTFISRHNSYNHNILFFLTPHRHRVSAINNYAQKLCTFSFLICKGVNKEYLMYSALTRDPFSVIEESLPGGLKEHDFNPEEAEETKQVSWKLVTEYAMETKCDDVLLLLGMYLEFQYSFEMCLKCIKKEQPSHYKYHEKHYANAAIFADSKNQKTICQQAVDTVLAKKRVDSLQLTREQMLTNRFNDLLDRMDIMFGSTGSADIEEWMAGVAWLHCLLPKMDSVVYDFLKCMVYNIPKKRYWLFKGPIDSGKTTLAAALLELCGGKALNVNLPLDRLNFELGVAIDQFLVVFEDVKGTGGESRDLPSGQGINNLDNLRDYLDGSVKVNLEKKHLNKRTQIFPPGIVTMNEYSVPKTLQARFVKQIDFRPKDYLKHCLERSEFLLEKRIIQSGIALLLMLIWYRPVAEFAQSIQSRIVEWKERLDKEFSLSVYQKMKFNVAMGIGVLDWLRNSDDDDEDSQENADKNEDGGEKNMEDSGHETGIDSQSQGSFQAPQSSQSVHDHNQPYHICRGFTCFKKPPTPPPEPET

[13] = target: T3, RNA-binding protein pos-1 (Caenorhabditis elegans, UniProt G5EF15); assay: disruptors of C. elegans POS-1 RNA interaction – biochemical, fluorescence polarization, dose response (AID 1964);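 further: purified POS-1 fused to maltose binding protein made in E. coli; potency of compounds blocking POS-1 binding to fluorescent RNA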
T3 sequence (G5EF15 whole entry): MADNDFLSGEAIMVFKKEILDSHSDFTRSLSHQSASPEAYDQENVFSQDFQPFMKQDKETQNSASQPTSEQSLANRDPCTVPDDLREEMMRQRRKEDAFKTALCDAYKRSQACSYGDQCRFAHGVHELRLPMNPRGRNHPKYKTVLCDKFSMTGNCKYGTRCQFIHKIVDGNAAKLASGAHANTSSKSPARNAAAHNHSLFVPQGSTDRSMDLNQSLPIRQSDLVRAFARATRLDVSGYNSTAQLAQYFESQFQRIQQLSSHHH

[14] = target: 5-hydroxytryptamine receptor 2A (Mus musculus, UniProt P35363); type: functional, cell-based;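 further: CHO-K1 cells with tagged receptor and beta-arrestin; agonist potency measured as compound-induced activation of the receptor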
[15] = target: Polyadenylate-binding protein 1 (Homo sapiens, UniProt P11940); assay: blockers of PABP interaction with poly(A) – biochemical, fluorescence polarization, […] (AID 2014)
Chain of Polyadenylate-binding protein 1 (P11940 whole entry): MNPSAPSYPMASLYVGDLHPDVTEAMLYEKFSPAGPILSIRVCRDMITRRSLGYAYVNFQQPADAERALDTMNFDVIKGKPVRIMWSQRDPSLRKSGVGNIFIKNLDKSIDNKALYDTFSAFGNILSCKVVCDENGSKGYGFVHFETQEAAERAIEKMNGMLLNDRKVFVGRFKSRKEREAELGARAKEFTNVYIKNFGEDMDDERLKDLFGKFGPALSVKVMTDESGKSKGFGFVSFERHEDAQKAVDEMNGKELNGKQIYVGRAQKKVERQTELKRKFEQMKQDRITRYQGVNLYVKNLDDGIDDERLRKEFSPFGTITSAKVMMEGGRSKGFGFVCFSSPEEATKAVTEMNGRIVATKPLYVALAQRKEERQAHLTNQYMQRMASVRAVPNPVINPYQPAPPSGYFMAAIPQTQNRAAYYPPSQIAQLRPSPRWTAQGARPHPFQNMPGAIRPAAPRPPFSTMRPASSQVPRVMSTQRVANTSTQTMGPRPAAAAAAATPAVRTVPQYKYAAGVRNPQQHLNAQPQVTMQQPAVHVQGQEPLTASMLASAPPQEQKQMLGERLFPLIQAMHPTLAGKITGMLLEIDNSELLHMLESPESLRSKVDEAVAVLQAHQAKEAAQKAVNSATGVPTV

[16] = target: Eukaryotic translation initiation factor 4H (Homo sapiens, UniProt Q15056); assay: eIF4H binding inhibition – biochemical, uHTS, fluorescence polarization, translation initiation inhibitor project, primary screen (AID 2012)
[17] = test system: INS1; assay: INS-1E survival protection against cytokine death – cell-based, luminescence, retest, dose response (AID 449756); type: functional; conditions: Rattus norvegicus;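 further: cell death triggered by IL-1 beta plus TNF-alpha plus IFN-gamma mixture; protective hits raise ATP signal compared with cytokine alone wells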
[18] = general mammalian cell viability loss – activator set, cherry-pick, cytotoxicity control for miR-122 modulator project, dose response (AID 720690); type: functional, cell-based;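 further: HEK293T human cells scored for general mammalian cytotoxicity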
[19] = cytotoxicity toward MDA-MB-231 breast cancer cells – cell-based, CellTiter-Glo luminescence, cherry-pick, cytotoxicity control for RAD54 inhibitor project, dose response (AID 651692); type: functional
[20] = target: Neurotensin receptor type 1 (Homo sapiens, UniProt P30989); type: functional;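 further: Image-based confirmatory dose-response assay measuring agonist activity at NTR1; NTR1-expressing U2OS osteosarcoma cells imaged for beta-arrestin GFP spot formation; agonist potency where compounds increase beta-arrestin recruitment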
Chain of Neurotensin receptor type 1 (P30989 whole entry): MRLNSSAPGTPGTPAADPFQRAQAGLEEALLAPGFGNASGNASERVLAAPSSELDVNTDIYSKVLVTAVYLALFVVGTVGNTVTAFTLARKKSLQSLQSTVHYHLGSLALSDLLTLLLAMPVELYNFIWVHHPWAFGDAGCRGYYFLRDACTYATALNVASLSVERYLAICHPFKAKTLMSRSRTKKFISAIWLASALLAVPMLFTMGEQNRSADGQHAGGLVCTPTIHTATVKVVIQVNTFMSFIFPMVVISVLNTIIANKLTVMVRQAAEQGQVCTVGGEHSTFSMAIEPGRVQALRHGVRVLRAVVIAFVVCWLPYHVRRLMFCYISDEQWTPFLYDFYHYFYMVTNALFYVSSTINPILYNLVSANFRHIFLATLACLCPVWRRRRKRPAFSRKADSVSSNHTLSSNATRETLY

[21] = Trypanosoma cruzi growth suppression in host cells – NIH3T3 host cells, beta-gal luminescence, confirmation (AID 2044); type: functional, cell-based;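 further: intracellular parasites grown in NIH/3T3 mouse fibroblasts as host cells; luminescent beta-galactosidase reporter signal from transgenic T. cruzi replicating inside host cells; inhibitors lower the luminescence signal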
[22] = target: Melanocortin receptor 4 (Homo sapiens, UniProt P32245); type: functional, cell-based;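 further: Cell-based assay with luminescence read-out, confirmatory dose-response testing for agonist activity of biased ligands at MC4R; human U2OS cells with tagged receptor and beta-arrestin; potency of agonists that increase receptor coupling to beta-arrestin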
Chain of Melanocortin receptor 4 (P32245 whole entry): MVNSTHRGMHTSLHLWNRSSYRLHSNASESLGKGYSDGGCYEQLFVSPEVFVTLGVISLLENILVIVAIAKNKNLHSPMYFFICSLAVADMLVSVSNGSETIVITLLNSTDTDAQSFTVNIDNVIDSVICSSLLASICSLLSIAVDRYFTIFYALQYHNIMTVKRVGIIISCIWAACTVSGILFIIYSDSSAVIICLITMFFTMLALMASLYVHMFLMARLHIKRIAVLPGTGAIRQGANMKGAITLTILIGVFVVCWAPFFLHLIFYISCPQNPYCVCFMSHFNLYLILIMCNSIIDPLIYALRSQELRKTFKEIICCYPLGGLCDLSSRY

[23] = NIH3T3 cell viability loss – ATP luminescence, mouse fibroblasts, counter-screen, dose response (AID 2010); type: functional, cell-based;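 further: cells exposed to compound for about 90 hours before reading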
[24] = target: T4, Estrogen receptor beta (Homo sapiens, UniProt Q92731); assay: blockers of SRC-3 recruitment to ERβ – biochemical, ELISA, streptavidin-HRP readout, orthogonal assay, confirmation (AID 1060)
T4 sequence (Q92731 whole entry): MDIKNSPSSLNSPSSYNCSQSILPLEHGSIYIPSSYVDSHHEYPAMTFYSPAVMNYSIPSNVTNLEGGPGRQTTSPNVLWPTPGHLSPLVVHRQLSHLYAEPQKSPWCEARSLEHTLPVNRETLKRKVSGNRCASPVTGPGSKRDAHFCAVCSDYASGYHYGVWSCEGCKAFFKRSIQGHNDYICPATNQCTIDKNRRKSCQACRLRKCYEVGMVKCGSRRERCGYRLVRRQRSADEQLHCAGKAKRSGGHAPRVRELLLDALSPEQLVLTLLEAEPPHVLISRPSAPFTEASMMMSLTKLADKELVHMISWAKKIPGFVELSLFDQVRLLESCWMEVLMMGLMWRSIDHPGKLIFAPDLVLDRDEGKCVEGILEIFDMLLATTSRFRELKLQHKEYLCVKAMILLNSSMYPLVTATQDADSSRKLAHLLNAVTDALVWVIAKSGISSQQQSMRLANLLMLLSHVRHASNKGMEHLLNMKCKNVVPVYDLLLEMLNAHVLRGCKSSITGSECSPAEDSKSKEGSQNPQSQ

[25] = target: T4, Estrogen receptor beta
[26] = target: Bcl-2-like protein 10 (Homo sapiens, UniProt Q9HD36); assay: Bcl-B/TR3 peptide binding disruption – biochemical, fluorescence polarization, FITC-TR3 peptide, selectivity assay for Bfl-1 inhibitor project, primary screen (AID 748);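 further: fluorescence polarization from a fluorescein-labelled TR3 peptide binding purified Bcl-B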
Chain of Bcl-2-like protein 10 (Q9HD36 whole entry): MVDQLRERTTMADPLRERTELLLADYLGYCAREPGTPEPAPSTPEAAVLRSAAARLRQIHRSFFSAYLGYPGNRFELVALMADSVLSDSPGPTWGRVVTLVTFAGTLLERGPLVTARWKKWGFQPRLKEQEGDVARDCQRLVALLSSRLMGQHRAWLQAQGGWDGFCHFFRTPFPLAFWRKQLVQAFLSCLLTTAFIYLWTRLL

[27] = target: T5, Tyrosine-protein phosphatase non-receptor type 7 (Homo sapiens, UniProt P35236); type: functional
T5 sequence (P35236 whole entry): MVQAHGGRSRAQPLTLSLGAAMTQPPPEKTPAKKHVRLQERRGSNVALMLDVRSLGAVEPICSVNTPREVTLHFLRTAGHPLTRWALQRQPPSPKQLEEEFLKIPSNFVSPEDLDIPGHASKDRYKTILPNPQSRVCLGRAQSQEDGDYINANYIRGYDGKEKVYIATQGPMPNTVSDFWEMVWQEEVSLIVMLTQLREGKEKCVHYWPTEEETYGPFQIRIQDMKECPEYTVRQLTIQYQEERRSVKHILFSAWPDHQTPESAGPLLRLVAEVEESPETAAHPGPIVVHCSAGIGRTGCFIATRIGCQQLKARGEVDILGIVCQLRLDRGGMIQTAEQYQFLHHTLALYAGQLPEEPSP

[28] = target: Glyceraldehyde-3-phosphate dehydrogenase (Homo sapiens, UniProt P04406)
[29] = target: T5, Tyrosine-protein phosphatase non-receptor type 7; assay: redox-active compounds inhibiting HePTP phosphatase – biochemical, fluorescence, mechanism study (AID 2068); type: functional
[30] = target: T6, Dual specificity protein phosphatase 6 (Rattus norvegicus, UniProt Q64346); type: functional
T6 sequence (Q64346 whole entry): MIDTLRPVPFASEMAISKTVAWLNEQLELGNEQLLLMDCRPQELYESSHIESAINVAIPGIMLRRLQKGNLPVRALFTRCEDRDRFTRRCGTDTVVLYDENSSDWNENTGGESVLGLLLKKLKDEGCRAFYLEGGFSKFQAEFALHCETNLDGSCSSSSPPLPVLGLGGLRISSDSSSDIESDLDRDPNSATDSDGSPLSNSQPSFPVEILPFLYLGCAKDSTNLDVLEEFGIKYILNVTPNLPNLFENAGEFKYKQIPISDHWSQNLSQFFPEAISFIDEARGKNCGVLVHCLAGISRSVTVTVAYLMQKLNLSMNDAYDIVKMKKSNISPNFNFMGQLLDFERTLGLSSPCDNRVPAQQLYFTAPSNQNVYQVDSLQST

[31] = target: T7, Dual specificity protein phosphatase 3 (Homo sapiens, UniProt P51452); assay: SAR VHR1 Fluorescent Assay for In Vitro dose response studies. [Related pubchem assays (depositor defined):AID1654, AID1661, AID1878, AID1992, AID2004, AID2070, AID2085]; type: functional
T7 sequence (P51452 whole entry): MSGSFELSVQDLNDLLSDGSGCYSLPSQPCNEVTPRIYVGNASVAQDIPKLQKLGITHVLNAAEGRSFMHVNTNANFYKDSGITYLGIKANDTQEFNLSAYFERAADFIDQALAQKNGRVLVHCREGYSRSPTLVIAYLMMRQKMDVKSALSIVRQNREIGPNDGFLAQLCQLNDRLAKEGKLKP

[32] = target: T7, Dual specificity protein phosphatase 3; assay: MOA VHR1 Fluorescent secondary assay for identification of redox-state modulating compounds. [Related pubchem assays (depositor defined):AID1654, AID1661, AID1878, AID1957]
[33] = target: T6, Dual specificity protein phosphatase 6
[34] = viability of PTEN-deleted HCT116 cells – cell-based, HCT116 PTEN knockout, dose response (AID 1047); type: functional;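 further: HCT116 colon tumor cells with PTEN knocked out; cells exposed to compound for 60 hours before readout; potency for loss of cell viability measured by luminescence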
[35] = test system: Streptococcus sp. 'group A'; assay: Streptococcus pyogenes SK(-)GAS viability under kanamycin – luminescence, BacTiterGlo, confirmation, counter-screen for streptokinase expression inhibitor project, dose response (AID 1900); type: functional, organism-based
[36] = target: T8, Streptokinase A (Streptococcus pyogenes serotype M1, UniProt P10520); assay: viability-normalized secreted streptokinase activity reduction – plasminogen activation absorbance, OD405, dose response (AID 1914); type: functional, Streptococcus pyogenes M1 GAS;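 further: secreted streptokinase activity via plasminogen activation per viability signal from cell pellet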
T8 sequence (P10520 whole entry): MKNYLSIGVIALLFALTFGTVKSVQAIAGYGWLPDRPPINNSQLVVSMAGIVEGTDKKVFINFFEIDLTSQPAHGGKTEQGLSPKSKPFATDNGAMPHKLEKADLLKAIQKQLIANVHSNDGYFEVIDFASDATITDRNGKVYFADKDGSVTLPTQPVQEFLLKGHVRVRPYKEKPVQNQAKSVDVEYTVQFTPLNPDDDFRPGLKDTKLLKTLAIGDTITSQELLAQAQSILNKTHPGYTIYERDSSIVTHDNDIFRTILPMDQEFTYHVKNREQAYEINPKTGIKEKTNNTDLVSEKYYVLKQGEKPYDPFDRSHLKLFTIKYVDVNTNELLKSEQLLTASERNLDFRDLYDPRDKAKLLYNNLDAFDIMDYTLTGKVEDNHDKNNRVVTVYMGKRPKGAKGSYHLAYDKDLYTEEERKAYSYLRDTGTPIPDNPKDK

[37] = target: Scavenger receptor class B member 1 (Mus musculus, UniProt Q61009); assay: mouse SR-BI DiI-HDL uptake blockers – ldlA[mSR-BI] cells, fluorescence, cherry pick, dose response (AID 493194); type: functional, cell-based;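 further: cellular uptake of fluorescent DiI-labeled HDL measured as cell fluorescence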
[38] = viability of HCT116 lacking mutant beta-catenin – cell-based, human colon tumor, dose response (AID 1045); type: functional;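 further: HCT116 colon tumor cells with beta catenin knocked out; cells exposed to compound for 60 hours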
[39] = test system: Streptococcus; assay: GAS UMAA2166 growth inhibition – luminescence, BacTiterGlo, counter-screen for streptokinase expression inhibitor project, dose response (AID 1915); type: functional, organism-based;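 further: potency for reduction of bacterial viability or growth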

COC(=O)c1ccc(Oc2nc(Nc3ccc(F)cc3)nc(N3CCCC3)n2)cc1
AC50 [1]: 289 µM (active)

Clc1ccc(CN(Cc2ccc(Cl)cc2)c2nnn[nH]2)cc1
IC50 [2]: > 14.6 µM (not active) | IC50 [3]: > 14.6 µM (not active)

Oc1ccc(CCNc2c3ccccc3nc3ccccc23)cc1O
AC50 [4]: 1.87 µM (active) | IC50 [5]: 2.49 µM (active) | EC50 [6]: 10.1 µM (active) | EC50 [7]: 92.5 µM (inactive) | EC50 [8]: > 350 µM (not active) | EC50 [9]: > 350 µM (not active) | IC50 [10]: > 59.6 µM (not active) | AC50 [11]: 2.76 µM (active) | IC50 [12]: 8.41 µM (active) | EC50 [13]: > 300 µM (not active) | EC50 [14]: 76.1 µM (inactive)

CCc1ccc(NS(=O)(=O)c2ccc(C)c(C(=O)N3CCOCC3)c2)cc1
IC50 [15]: 6.21 µM (active) | IC50 [16]: > 100 µM (inactive)

Cc1cc(C)cc(OCC(O)CN2CCC(CN3C(=O)c4cccc5cccc(c45)C3=O)CC2)c1 (stereo not given)
AC50 [4]: 7.63 µM (active) | AC50 [17]: 5.59 µM (active) | AC50 [18]: 15.9 µM (active) | AC50 [19]: 23.6 µM (active) | EC50 [20]: 18.6 µM (active) | EC50 [21]: 1.82 µM (active) | EC50 [22]: > 89.2 µM (inactive) | EC50 [23]: 9.92 µM (active)

CCOc1ccc2[nH]c(=O)c(=O)[nH]c2c1
IC50 [24]: 12.2 µM (not active) | IC50 [25]: > 50 µM (not active) | IC50 [26]: > 50 µM (inactive)

O=c1/c(=C/c2ccc(-c3cc(Cl)cc(Cl)c3)o2)sc2nc3cc(Br)cnc3n12
IC50 [27]: > 100 µM (not active) | IC50 [28]: > 100 µM (not active) | IC50 [29]: 1.15 µM (active) | IC50 [30]: > 100 µM (inactive) | IC50 [31]: 8.81 µM (active) | IC50 [32]: 2.23 µM (active) | IC50 [33]: > 100 µM (inactive)

COc1ccc(-c2nc(-c3ccc4c(c3)OCO4)[nH]c2-c2ccc(OC)cc2)cc1
EC50 [34]: 16.7 µM (active) | EC50 [35]: 2.62 µM (active) | EC50 [36]: 2.07 µM (active) | AC50 [37]: 18.1 µM (active) | EC50 [38]: 19.2 µM (active) | EC50 [39]: > 150 µM (not active)
